Laboratory results reported in patent US20210009959A1, “METHODS FOR ENHANCING OSTEOGENIC DIFFERENTIATION USING VITAMIN D” (priority 2019, published 2021).

Legend:
[1] = test system: human adipose stem cells (hASCs); experiment: hASC proliferation (cell number) on BCP scaffold, static culture; assay type: cell-based; conditions: vs non-treated controls
Protocol: In one embodiment, a method of static culture of hASCs by pre-treatment with vitamin D3 (calcitriol) and attachment of hASCs to the scaffold used in one-step surgical procedure comprises the following steps. At one step, isolating hASCs as explained in FIG. 1. In an embodiment, the hASCs from three donors at passage 3 are used for further processing. As an optional step, the obtained hASCs are either or not incubated for a period of about 30 mins with low concentrated calcitriol of about 10 nM at room temperature. At next step, the calcitriol treated hASCs are washed twice with Phosphate Buffered Saline (PBS) to remove calcitriol. Further, the washed hASCs are centrifuged and resuspended in Dulbecco's Minimum Essential Medium (DMEM) without any supplements. At another step, the resuspended cells are seeded on the scaffold and allowed to attach to the scaffolds for a period of about 30 minutes. At next step, the scaffolds with attached cells are transferred to 12-well plates with Costar® Transwell® containers (Corning Life Sciences, Lowell, Mass., USA) containing expansion medium (DMEM) supplemented with 10% Fetal Clone I (FCI), antibiotics (1% penicillin/streptomycin/fungizone (PSF)), 50 μM ascorbic acid (Merck, Darmstadt, Germany), and 10 mM β-glycerol phosphate (Merck, Darmstadt, Germany) (PLGA/β-TCP). At next step, the hASCs seeded scaffolds are incubated at 5% CO2 in a humidified incubator at predefined temperature of about 37° C. for a period of about 3 weeks. The effect of 30 minutes pre-treatment with calcitriol on hASC proliferation is exemplarily illustrated in FIG. 4C. […] The 30 minutes pre-treatment with calcitriol increases the cell number at day 14 by 3.5-fold, and at day 21 by 2.6-fold. The continuous treatment of hASCs with calcitriol for 3 weeks increases the cell number only at day 14 by 1.7-fold, but not at day 21 compared to non-treated controls as shown in FIG. 4C. The results of hASC proliferation are expressed as CFU (in %) versus time (in days) and represent means±standard errors of the means of the colon forming unit counts (n=3), where p<0.0001.

[2] = test system: human adipose stem cells (hASCs); experiment: Osteogenic and angiogenic gene expression of hASCs in 3D PLGA/β-TCP scaffold, dynamic and static culture; assay type: cell-based
Protocol: In one embodiment, dynamic culture of pre-treated hASCs with calcitriol, using the modified perfusion bioreactor comprises the following steps. In one embodiment, the scaffolds are 3D PLGA/β-TCP. The modified perfusion bioreactor […] comprises five scaffolds, loaded with a total of 70 ml of culture medium as shown in FIG. 2. At another step, 30 ml of the culture medium is replaced twice a week for a total period of two weeks. At another step, the culture medium in the modified perfusion bioreactor 200 is distributed to the five scaffolds with the flow rate of about 5 ml/min using the peristaltic pump 202.
In one embodiment, the method of static culture of pre-treated hASCs is continued in a flask bioreactor with the same volume of culture medium utilized in the dynamic culture. Further, the methods of culturing the hASCs are divided into different groups. In one embodiment, the methods of culturing of hASCs are divided into four groups such as, static culture of non-treated hASCs, static culture of pre-treated hASCs with calcitriol, dynamic culture of non-treated hASCs and dynamic culture of pre-treated hASCs with calcitriol.
Referring to FIGS. 11A to 11I, the effects of perfusion culture of hASCs on osteogenic and angiogenic differentiation of hASCs are disclosed, where the hASCs are seeded in 3D PLGA/β-TCP scaffold. In one embodiment, the hASCs are pre-treated with or without 10 nM of calcitriol for 30 minutes and cultured in the modified perfusion bioreactor (dynamic culture) and flask bioreactor (static culture).

[3] = 14 days, perfusion culture of pre-treated vs perfusion culture of non-treated hASCs
[4] = 14 days, perfusion culture of pre-treated vs static culture of pre-treated hASCs
[5] = day 7, dynamic culture of pre-treated vs perfusion culture of non-treated hASCs
[6] = day 7, dynamic culture of pre-treated vs static culture of treated hASC

C=C1/C(=C\C=C2/CCC[C@]3(C)[C@@H]([C@H](C)CCCC(C)(C)O)CC[C@@H]23)C[C@@H](O)C[C@@H]1O [calcitriol, 1,25-dihydroxyvitamin D3]
cell number, increase ([1]; 30 min pre-treatment, day 14): 3.5 fold | cell number, increase ([1]; 30 min pre-treatment, day 21): 2.6 fold | cell number, increase ([1]; continuous treatment for 3 weeks, day 14): 1.7 fold | cell number, increase ([1]; continuous treatment for 3 weeks, day 21): not at day 21 | CYP27B1 gene expression, increase [2, 3]: 5.3 fold | Endotelin-1 gene expression, increase [2, 3]: 4 fold | Ki-67 gene expression, increase [2, 3]: 1.8 fold | OCN gene expression, increase [2, 3]: 2.1 fold | RUNX2 gene expression, increase [2, 3]: 6.4 fold | SPARC gene expression, increase [2, 3]: 2.8 fold | VEGF165 gene expression, increase [2, 3]: 3.1 fold | VEGF189 gene expression, increase [2, 3]: 2.5 fold | CYP27B1 gene expression, increase [2, 4]: 15.4 fold | Endotelin-1 gene expression, increase [2, 4]: 35 fold | Ki-67 gene expression, increase [2, 4]: 5.1 fold | OCN gene expression, increase [2, 4]: 4.1 fold | OPN gene expression, increase [2, 4]: 60 fold | RUNX2 gene expression, increase [2, 4]: 82.8 fold | SPARC gene expression, increase [2, 4]: 33.2 fold | VEGF165 gene expression, increase [2, 4]: 1.4 fold | VEGF189 gene expression, increase [2, 4]: 5.7 fold | OPN gene expression (level) ([2]; day 7, dynamic culture of pre-treated hASC): 0.1084 | Endotelin-1 gene expression, increase [2, 5]: 120.9 fold | Ki-67 gene expression, increase [2, 5]: 45.9 fold | OCN gene expression, increase [2, 5]: 1.8 fold | RUNX2 gene expression, increase [2, 5]: 186.5 fold | SPARC gene expression, increase [2, 5]: 3 fold | VEGF165 gene expression, increase [2, 5]: 3 fold | VEGF189 gene expression, increase [2, 5]: 3.4 fold | Endotelin-1 gene expression, increase [2, 6]: 5.4 fold | OCN gene expression, increase [2, 6]: 7.1 fold | OPN gene expression, increase [2, 6]: 47.3 fold | SPARC gene expression, increase [2, 6]: 7.5 fold | VEGF165 gene expression, increase [2, 6]: 9.8 fold | VEGF189 gene expression, increase [2, 6]: 8.8 fold | OPN gene expression (level) ([2]; day 7, static culture of treated hASC): 0.002291
